From the NIST ThermoML archive (doi:10.1021/je800046k)

Columns and labels:
[1] = xn = mol fraction of the nth substance listed; details: for surface tension liquid-gas: Pendant drop shape; for mass density: 101 kPa, Liquid
[2] = for surface tension liquid-gas: Pendant drop shape; for mass density: 101 kPa, Liquid

Cc1cc(C)cc(C)c1 [1,3,5-trimethylbenzene] + CC(=O)OCC(C)C
[1], x2 = 0
Details | mass density [kg/m3] | surface tension liquid-gas [mN/m]
298.15 K | 861.12 | 28.05
308.15 K | 852.94 | 27.21
313.15 K | 848.82 | 26.78

Cc1ccc(C)c(C)c1 [1,2,4-trimethylbenzene]
[2]
Details | mass density [kg/m3] | surface tension liquid-gas [mN/m]
298.15 K | 871.71 | 29.3
308.15 K | 863.68 | 28.24
313.15 K | 859.58 | 27.71

Cc1cc(C)cc(C)c1 [1,3,5-trimethylbenzene]
[2]
Details | mass density [kg/m3] | surface tension liquid-gas [mN/m]
298.15 K | 861.12 | 28.05
308.15 K | 852.94 | 27.21
313.15 K | 848.82 | 26.78

CC(=O)OC(C)C [1-methylethyl ethanoate] + Cc1cc(C)cc(C)c1
[1], x1 = 1
Details | mass density [kg/m3] | surface tension liquid-gas [mN/m]
298.15 K | 866.25 | 21.89
308.15 K | 854.54 | 20.81
313.15 K | 848.61 | 20.29

CC(=O)OCC(C)C [2-methylpropyl ethanoate]
[2]
Details | mass density [kg/m3] | surface tension liquid-gas [mN/m]
298.15 K | 866.06 | 23.15
308.15 K | 855.51 | 22.16
313.15 K | 850.16 | 21.64

CC(=O)OC(C)C [1-methylethyl ethanoate]
[2]
Details | mass density [kg/m3] | surface tension liquid-gas [mN/m]
298.15 K | 866.25 | 21.89
308.15 K | 854.54 | 20.81
313.15 K | 848.61 | 20.29

CC(=O)OC(C)C [1-methylethyl ethanoate] + Cc1ccc(C)c(C)c1
[1], x1 = 1
Details | mass density [kg/m3] | surface tension liquid-gas [mN/m]
298.15 K | 866.25 | 21.89
308.15 K | 854.54 | 20.81
313.15 K | 848.61 | 20.29

Cc1ccc(C)c(C)c1 [1,2,4-trimethylbenzene] + CC(=O)OCC(C)C
[1], x2 = 0
Details | mass density [kg/m3] | surface tension liquid-gas [mN/m]
298.15 K | 871.71 | 29.3
308.15 K | 863.68 | 28.24
313.15 K | 859.58 | 27.71
